# Source: patent publication US20100004166A1, “Endothelin and Endothelin Receptor Agonists in the Treatment of Metabolic Diseases” (priority 2007, published 2010)
# “Also recorded” adds a separate entry of the source. Where a SMILES comes first, the peptide text is derived from it. Bridges are numbered along the chain shown (N, C = ends). Where no end group is shown, it is not given here.
# Experiment: Reduction of food intake in fasted mice after i.p. injection of peptide
# Type: in vivo, NIH/Swiss mice
# Settings: fasted mice, i.p.
# Description: In yet another embodiment, the ET receptor agonist is adenoregulin. See, e.g., Donly et al., Proc. Natl. Acad. Sci. USA 89:10960-963 (1992); Amiche et al., Biochem. Biophys. Res. Comm. 191:983-90 (1993). Known sequences for adenoregulin include Genbank sequences X70278 and X72387. Originally isolated from the skin of the frog Phyllomedusa bicolor, adenoregulin belongs to the family of dermaseptins, a family of antimicrobial peptides. See, e.g., Amiche et al., J. Biol. Chem. 269:17847-52 (1994); Zhou et al., Biotechnol. Lett. 27:725-30 (2005).
# Materials & Methods: NIH/Swiss mice were fasted approximately 17 hours prior to initiation of the experiment. Peptides were injected intraperitoneally (i.p.) at time zero using doses as indicated. All mice received an intraperitoneal injection (200 μl) of either vehicle or compounds at doses indicated and were immediately presented with a pre-weighed food pellet. The food pellet was weighed at 30-minute, 1-hr, and 2-hr intervals after presentation to determine the amount of food eaten. Each point reflects n=4 for mice receiving an endothelin or endothelin agonist or n=3 for mice receiving vehicle.
# Food intake values reflect, at each time point, effect of test sample on food intake is expressed as % change relative to vehicle using the formula provided below.
# % basal=−100*[1−(food intake of treatment group/food intake of vehicle group)].
# Significant test sample effects were identified by ANOVA (p<0.05). Where a significant difference exists, test means were compared to the control mean using Dunnett's test. One-way ANOVA with Dunnett's post test was performed using GraphPad Prism® version 3.01 for Windows, GraphPad Software, San Diego, Calif. USA.
row,Compound,observable negative effects
1,"CC[C@H](C)[C@H](NC(=O)[C@H](CC(=O)O)NC(=O)[C@H](CC(C)C)NC(=O)[C@H](Cc1cnc[nH]1)NC(=O)[C@@H]1CSSC[C@H](N)C(=O)N[C@@H](CO)C(=O)N[C@H]2CSSC[C@H](NC(=O)[C@H](CCC(=O)O)NC(=O)[C@H](CCCCN)NC(=O)[C@H](CC(=O)O)NC(=O)[C@H](CC(C)C)NC(=O)[C@H](Cc3c[nH]c4ccccc34)NC(=O)[C@H](CO)NC(=O)[C@H](CO)NC2=O)C(=O)N[C@@H](C(C)C)C(=O)N[C@@H](Cc2ccc(O)cc2)C(=O)N[C@@H](Cc2ccccc2)C(=O)N1)C(=O)N[C@H](C(=O)N[C@@H](Cc1c[nH]c2ccccc12)C(=O)O)[C@@H](C)CC [ET-2, reference compound] (H-CSCSSWLDKECVYFCHLDIIW-OH; disulfide 1-15, 3-11)",without observable negative effects
2,"CC[C@H](C)[C@H](NC(=O)[C@H](CC(=O)O)NC(=O)[C@H](CC(C)C)NC(=O)[C@H](Cc1cnc[nH]1)NC(=O)[C@@H]1CSSC[C@H](N)C(=O)N[C@@H](CO)C(=O)N[C@H]2CSSC[C@H](NC(=O)[C@H](CCC(=O)O)NC(=O)[C@H](CCCCN)NC(=O)[C@H](CC(=O)O)NC(=O)[C@H](CCSC)NC(=O)[C@H](CC(C)C)NC(=O)[C@H](CO)NC(=O)[C@H](CO)NC2=O)C(=O)N[C@@H](C(C)C)C(=O)N[C@@H](Cc2ccc(O)cc2)C(=O)N[C@@H](Cc2ccccc2)C(=O)N1)C(=O)N[C@H](C(=O)N[C@@H](Cc1c[nH]c2ccccc12)C(=O)O)[C@@H](C)CC [ET-1, reference compound]",without observable negative effects

# Same assay, conditions: fasted mice, i.p., 30 minutes
row,Compound,food intake at 30 minutes
1,"N-Succinyl-[Glu^9, Ala^11,15]-Endothelin 1 fragment 8-21 [IRL1620, reference compound]",reduced food intake

# Same assay, conditions: fasted mice, i.p., 60 minutes
row,Compound,food intake at 60 minutes
1,"N-Succinyl-[Glu^9, Ala^11,15]-Endothelin 1 fragment 8-21 [IRL1620, reference compound]",reduced food intake

# Same assay, conditions: fasted mice, i.p., 120 minutes
row,Compound,food intake at 120 minutes
1,"N-Succinyl-[Glu^9, Ala^11,15]-Endothelin 1 fragment 8-21 [IRL1620, reference compound]",no effect

# Same assay, conditions: fasted mice, peripheral (i.p.) administration, all time points examined (30, 60, 120 min)
row,Compound,reduction in food intake
1,"c(CTCNDMTDEECLNFCHQDVIW)-OH [Sarafotoxin S6c, reference compound]",dose-dependent reduction in food intake

# Same assay, conditions: food intake (FI) at 120 min; dose not given
row,Compound,% Inhibition of FI at 120 mi
1,63 (GMWSKIKNAGKAAAKASKKAAGKAALGAVSEALGEQ-OH) [compound 63],50.0%
2,35 (GLWSKIKEVGKEAAKAAAKAAGKAALGAVSEA-NH2) [compound 35],28.9%
3,46 (GLWSKIKEVGKEAAKAAAKAAGKAALGAVSEA-NH2) [compound 46],17.0%
4,39 (GLWSKIKEVGKEAAKAAAKAAGKAALGAVSEAY-NH2) [compound 39],61.0%
5,54 (GAWSKIKEVGKEAAKAAAKAAGKAALGAVSEAV-NH2) [compound 54],37.3%
6,50 (GLWSAIKEVGKEAAKAAAKAAGKAALGAVSEAV-NH2) [compound 50],22.3%
7,64 (GMWGSLLKGVATVVKHVLPHALSSQQS-OH) [compound 64],22.0%
8,36 (GLWSKIKEVGKEAAKAAAKAAGKAALGAVSEAF-NH2) [compound 36],92.0%
9,49 (GLWSKIKEVGKEAAKAAAKAAGKAALGAVSEA-NH2) [compound 49],13.5%
10,53 (GLWSKIKEVGKEAAKAAAKAAGKAALGAASEAV-NH2) [compound 53],33.6%
11,61 (ALWMTLLKKVLKAAAKALNAVLVGANA-OH) [compound 61],35.0%
12,47 (GLWSKIKEVGKEAAKAAAKAAGKAALGAVSEAVGEQ-OH) [compound 47],50.0%
13,51 (GLASKIKEVGKEAAKAAAKAAGKAALGAVSEAV-NH2) [compound 51],25.8%
14,41 (GLWSKIKEVGKEAAKAAAKAAGKAALGAVSEAA-NH2) [compound 41],54.0%
15,52 (ALWSKIKEVGKEAAKAAAKAAGKAALGAVSEAV-NH2) [compound 52],32.3%
16,44 (GLWSKIKEVGKEAAKAAAKAAGKAALGAVSEAR-NH2) [compound 44],34.0%
17,60 (ALWKTLLKKVGKVAGKAVLNAVTNMANQNEQ; not fully specified (C-terminus); printed as ALWKTLLKKVGKVAGKAVLNAVTNMANQNEQ-OH) [compound 60],53.0%
18,43 (GLWSKIKEVGKEAAKAAAKAAGKAALGAVSEAP-NH2) [compound 43],37.0%
19,33 (GLWSKIKEVGKEAAKAAAKAAGKAALGAVSEAV-NH2) [compound 33],77.6%
20,37 (GLWSKIKEVGKEAAKAAAKAAGKAALGAVSEAL-NH2) [compound 37],79.0%
21,38 (GLWSKIKEVGKEAAKAAAKAAGKAALGAVSEAI-NH2) [compound 38],78.0%
22,55 (GLWSKIKEVGKEAAKAAAKAAGKAALGAVSEAA-NH2) [compound 55],54.0%
23,56 (GLWAKIKEVGKEAAKAAAKAAGKAALGAVSEAV-NH2) [compound 56],71.7%
24,40 (GLWSKIKEVGKEAAKAAAKAAGKAALGAVSEAW-NH2) [compound 40],61.0%
25,57 (GLWSKIKEVGKEAAKAAAKAAGKAALGAVAEAV-NH2) [compound 57],74.8%
26,62 (ALWKTLLKKVLKA-NH2) [compound 62],28.2%
27,42 (GLWSKIKEVGKEAAKAAAKAAGKAALGAVSEAK-NH2) [compound 42],48.0%
28,45 (GLWSKIKEVGKEAAKAAAKAAGKAALGAVSEAH-NH2) [compound 45],23.0%
29,59 (ALWKTMLKKLGTMALHAGKAALGAAADTISQGTQ-OH) [compound 59],58.0%
30,58 (GLWSKIKEVGKEAAKAAAKAAGKAALGAVSAAV-NH2) [compound 58],78.9%

# Same assay, conditions: rodents; doses estimated to be less than those exerting antibiotic effects
row,Compound,food intake
1,GLWSKIKEVGKEAAKAAAKAAGKAALGAVSEAV-NH2 [SEQ ID NO 33],inhibited food intake

# Experiment: Body weight and body fat in diet induced obese (DIO) mice, continuous s.c. osmotic pump infusion
# Type: in vivo
# Settings: DIO mice on high fat diet, 300 nmol/kg/d, infused continuously 2-4 weeks (28 days); listed as adenoregulin
# Description: Materials & Methods: Diet induced obese (DIO) mice were employed. Obesity was induced by feeding a pelleted high-fat diet (58% of calories, #D12331, Research Diets, New Brunswick, N.J.) starting at 4 wk of age (20) for 6 wk (4 wk for the long-term study) prior to treatment. The mice then remained on this diet in powdered form throughout the treatment period unless otherwise noted. All animals were housed under a 12 hr:12 hr light-dark cycle at 21-23° C., and allowed ad libitum access to food pre- and post-treatment. […] (20 nmol/kg/d), or adenoregulin [SEQ ID NO: 33] (300 nmol/kg/d) were administered to DIO mice by Alzet® s.c. osmotic pumps. Mice were fed pelleted high-fat diet, and body weights and food intake were recorded weekly.
# Body weight (BWt), at each time point, reflects the effect of test sample on BWt when expressed as % change relative to vehicle treated. For a treatment group:
# % BWt loss=100*[(mean BWt change vehicle treated)−(mean BWt change treated)/mean BWt at day 0]
# […]
# Significant test sample effects were identified by ANOVA (p<0.05). Where a significant difference exists, test means were compared to the control mean using Dunnett's test. One-way ANOVA with Dunnett's post test was performed using GraphPad Prism® version 3.01 for Windows, GraphPad Software, San Diego Calif.
row,Compound,body weight
1,GLWSKIKEVGKEAAKAAAKAAGKAALGAVSEAV-NH2 [SEQ ID NO 33],sustained weight reducing effect; also recorded: reduction of body weight

# Same assay, conditions: DIO mice on high fat diet, 300 nmol/kg/d, vs vehicle on high-fat or low-fat diet; listed as adenoregulin
row,Compound,body fat
1,GLWSKIKEVGKEAAKAAAKAAGKAALGAVSEAV-NH2 [SEQ ID NO 33],reduction in body fat; also recorded: reduction of body fat

# Same assay, conditions: DIO mice, 20 nmol/kg/d continuously infused
row,Compound,sickness behavior
1,"CC[C@H](C)[C@H](NC(=O)[C@H](CC(=O)O)NC(=O)[C@H](CC(C)C)NC(=O)[C@H](Cc1cnc[nH]1)NC(=O)[C@@H]1CSSC[C@H](N)C(=O)N[C@@H](CO)C(=O)N[C@H]2CSSC[C@H](NC(=O)[C@H](CCC(=O)O)NC(=O)[C@H](CCCCN)NC(=O)[C@H](CC(=O)O)NC(=O)[C@H](CCSC)NC(=O)[C@H](CC(C)C)NC(=O)[C@H](CO)NC(=O)[C@H](CO)NC2=O)C(=O)N[C@@H](C(C)C)C(=O)N[C@@H](Cc2ccc(O)cc2)C(=O)N[C@@H](Cc2ccccc2)C(=O)N1)C(=O)N[C@H](C(=O)N[C@@H](Cc1c[nH]c2ccccc12)C(=O)O)[C@@H](C)CC [ET-1, reference compound]",without observable sickness behavior
